Laboratory results reported in patent US20240239794A1, “PKC-Theta Modulators” (Exscientia AI Limited, priority 2021, published 2024).
Read-outs that look alike come from different tables or passages of the source.

Tests used:
[1] = molecular target: Recombinant human PKC-delta (His-tagged 345-676) (Homo sapiens (Human), UniProt Q05655); assay: PKC-delta inhibition assay (HTRF KinEASE kit), PKC-theta/PKC-delta selectivity; assay type: biochemical; settings: ratio; for PKC-theta/PKC-delta selectivity: PKC-theta over PKC-delta, HTRF assays; for PKC-theta/PKC-delta selectivity (binned): binned A to G
In short: (§1)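 HTRF KinEASE kinase assay, buffer supplemented with 10 mM MgCl2, 1 mM DTT, 0.1% Tween 20; enzyme at 10 ng/ml preincubated 30 min on ice with compound. PKC-theta: 525 nM STK substrate, 6.5 μM ATP, 30 min at 25° C; PKC-delta: 243 nM substrate, 5.7 μM ATP, 20 min. IC50 from 4-parameter fit of 10-dose series.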

[2] = molecular target: Recombinant human PKC-theta (His-tagged 362-706) (Homo sapiens (Human), UniProt Q04759); assay: PKC-theta inhibition assay (HTRF KinEASE kit); assay type: biochemical; settings: ATP 6.5 μM
In short: as §1

[3] = tested on: IL-2 secretion by human effector memory T cells (TEM); assay: Effector memory T cells IL-2 release assay; assay type: cell-based; settings: T-cell, human CD4+ TEM cells, CD3/CD28 bead stimulation, 24 h
In short: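 Human CD4+ effector memory T cells (negatively sorted from donor PBMC), 5,000 per well, stimulated with CD3/CD28 beads and 10 semi-log compound doses for 24 h at 37° C, 0.1% DMSO. Supernatant IL-2 measured by HTRF; IC50 from 4-parameter logistic fit; viability checked by flow cytometry.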

[4] = binned A to H, read-out: PKC-theta HTRF pIC50 (binned) (converted)
[5] = read-out: PKC-theta HTRF pIC50 (converted)
[6] = binned A to G, read-out: PKC-theta IL2 pIC50 (binned) (converted)
[7] = read-out: PKC-theta IL2 pIC50 (converted)

Sequence of Recombinant human PKC-delta (His-tagged 345-676) (Q05655 345-676): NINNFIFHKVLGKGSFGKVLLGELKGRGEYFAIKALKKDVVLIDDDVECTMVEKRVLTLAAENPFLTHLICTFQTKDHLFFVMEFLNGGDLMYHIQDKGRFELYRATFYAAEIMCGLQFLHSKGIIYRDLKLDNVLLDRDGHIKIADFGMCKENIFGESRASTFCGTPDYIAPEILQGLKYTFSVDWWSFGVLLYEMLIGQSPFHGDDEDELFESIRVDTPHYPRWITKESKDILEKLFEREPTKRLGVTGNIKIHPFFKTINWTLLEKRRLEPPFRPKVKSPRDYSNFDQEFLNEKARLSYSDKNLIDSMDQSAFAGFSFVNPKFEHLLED
Sequence of Recombinant human PKC-theta (His-tagged 362-706) (Q04759 362-706): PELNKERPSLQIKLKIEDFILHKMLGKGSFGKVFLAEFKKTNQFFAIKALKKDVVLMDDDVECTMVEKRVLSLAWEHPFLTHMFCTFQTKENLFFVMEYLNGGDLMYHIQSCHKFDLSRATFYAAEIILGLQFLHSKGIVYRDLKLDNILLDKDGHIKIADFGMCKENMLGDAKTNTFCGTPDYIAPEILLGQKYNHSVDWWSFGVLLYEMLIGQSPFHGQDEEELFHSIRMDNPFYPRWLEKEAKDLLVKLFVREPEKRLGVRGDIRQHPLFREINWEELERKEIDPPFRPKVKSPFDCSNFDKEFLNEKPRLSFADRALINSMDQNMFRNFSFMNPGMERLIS

Row | SMILES | PKC-theta/PKC-delta selectivity [1] | PKC-theta/PKC-delta selectivity (binned) [1] | IC50 [2, 4] [nM] | IC50 [2, 5] [nM] | IC50 [3, 6] [nM] | IC50 [3, 7] [nM] | PKC-theta HTRF pIC50 [2]
1 | CC[C@@]1(C)C(=O)Nc2nccc(-c3nn([C@H]4CCNC[C@H]4F)c4ccccc34)c21 (single isomer, unassigned) [Example 107] | 23 | C (C means a ratio of between 20 and 30) | 10 to 31.6 | 20 | 316 to 1000 | 631 | 
2 | COC1(C)C(=O)Nc2nccc(-c3nn(C4(CC#N)CCC4)c4ccccc34)c21 (stereo not drawn) [Example 57] | 14 | D (D means a ratio of between 10 and 20) | 1 to 3.16 |  | 31.6 to 100 | 50.1 | 8.9
3 | CO[C@@]1(C)C(=O)Nc2nccc(-c3nn(CC4(F)CCNCC4)c4cc(F)ccc34)c21 (single isomer, unassigned) [Example 79] | 15 | D (D means a ratio of between 10 and 20) | 1 to 3.16 | 1.26 | 31.6 to 100 | 50.1 | 
4 | CC[C@]1(O)C(=O)Nc2nccc(-c3nn(C4(CC#N)CCC4)c4ccccc34)c21 (single isomer, unassigned) [Example 69] | 9 | E (E means a ratio of between 5 and 10) | 31.6 to 100 | 100 | > 1000 | 1260 | 
5 | CO[C@@]1(C)C(=O)Nc2nccc(-c3nn(CC4(F)CCNCC4)c4ccccc34)c21 (single isomer, unassigned) [Example 78] | 10 | D (D means a ratio of between 10 and 20) | ≤ 1 | 1 | 31.6 to 100 | 50.1 | 
6 | CC1(C)C(=O)Nc2nccc(-c3nn(C4(CF)CCNC4)c4ccccc34)c21 (stereo not drawn) [Example 77] | 11 | D (D means a ratio of between 10 and 20) | ≤ 1 |  | 10 to 31.6 | 12.6 | 9.0
7 | CC1(C)C(=O)Nc2nccc(-c3nn(CC4(F)CCNC4)c4ccccc34)c21 (stereo not drawn) [Example 96] | 17 | D (D means a ratio of between 10 and 20) | 1 to 3.16 |  | 10 to 31.6 | 25.1 | 8.7
8 | C[C@@]1(O)C(=O)Nc2nccc(-c3nn(C4(CC#N)CCC4)c4ncccc34)c21 (single isomer, unassigned) [Example 60] | 8 | E (E means a ratio of between 5 and 10) | 3.16 to 10 | 3.98 | 100 to 316 | 100 | 
9 | CC1(C)C(=O)Nc2nccc(-c3nn(C4(CC#N)COC4)c4ccccc34)c21 [Example 45] | 15 | D (D means a ratio of between 10 and 20) | 31.6 to 100 |  | > 1000 | 1000 | 7.4
10 | CC[C@]1(C)C(=O)Nc2nccc(-c3nn([C@@H]4CCNC[C@@H]4F)c4ccc(F)cc34)c21 (single isomer, unassigned) [Example 98] | 57 | A (A means a ratio of between 50 and 120) | 10 to 31.6 | 31.6 | > 1000 | 1000 | 
11 | CC1C(=O)Nc2nccc(-c3ccn(C4CCNCC4)c3)c21 (stereo not drawn) [Example 5] | 1 | F (F means a ratio of between 1 and 5) | 31.6 to 100 |  | 100 to 316 | 126 | 7.1
12 | CC1(O)C(=O)Nc2nccc(-c3nn(C4CCNCC4)c4ccccc34)c21 (stereo not drawn) [Example 26] | 11 | D (D means a ratio of between 10 and 20) | 3.16 to 10 |  | 31.6 to 100 | 79.4 | 8.5
13 | CO[C@]1(C)C(=O)Nc2nccc(-c3nn(CC4(F)CCNCC4)c4cc(F)ccc34)c21 (single isomer, unassigned) [Example 76] | 22 | C (C means a ratio of between 20 and 30) | 1 to 3.16 | 3.16 | 31.6 to 100 | 100 | 
14 | C[C@]1(O)C(=O)Nc2nccc(-c3nn(C4(CC#N)CCC4)c4cc(C(F)(F)F)ccc34)c21 (single isomer, unassigned) [Example 64] | 28 | C (C means a ratio of between 20 and 30) | 1 to 3.16 | 2.51 | 31.6 to 100 | 79.4 | 
15 | CC1(C)C(=O)Nc2nccc(-c3nn(C[C@]4(C)COCCN4)c4ccccc34)c21 [Example 109] | 11 | D (D means a ratio of between 10 and 20) | 10 to 31.6 |  | 316 to 1000 | 501 | 7.7
16 | CC1(C)C(=O)Nc2nccc(-c3nn([C@H]4CCCNC4)c4ccccc34)c21 [Example 20] | 13 | D (D means a ratio of between 10 and 20) | 10 to 31.6 |  | 100 to 316 | 200 | 7.8
17 | CO[C@]1(C)C(=O)Nc2nccc(-c3nn(C4(CC#N)CCC4)c4ccccc34)c21 (single isomer, unassigned) [Example 81] | 20 | C (C means a ratio of between 20 and 30) | 31.6 to 100 | 31.6 | 316 to 1000 | 794 | 
18 | C[C@@]1(O)C(=O)Nc2nccc(-c3nn([C@@H]4CCNC[C@@H]4F)c4ccccc34)c21 (single isomer, unassigned) [Example 50] | 11 | D (D means a ratio of between 10 and 20) | ≤ 1 | 0.794 | 10 to 31.6 | 20 | 
19 | CC1(O)C(=O)Nc2nccc(-c3nn(C4(CC#N)CCC4)c4ccccc34)c21 (stereo not drawn) [Example 25, 2-[1-[3-(3-hydroxy-3-methyl-2-oxo-1H-pyrrolo[2,3-b]pyridin-4-yl)indazol-1-yl]cyclobutyl]acetonitrile] | 6 | E (E means a ratio of between 5 and 10) | ≤ 1 |  | 10 to 31.6 | 20 | 9.3
